Data on eleven compounds can be found in patent US9296694B2, “Azacyclic compounds” (ACADIA Pharmaceuticals Inc., priority 2000, dated 2016).

Entries after “also recorded” stand apart in the source; their conditions may differ. Structures can show the parent of a compound that is named as a salt. Where only a bound is given, the exact number is not on record here.

The target in one series is T1, 5-HT2A receptor (Homo sapiens, UniProt P28223).
T1 construct: expressed in transfected cells; host or cells: NIH3T3 (mouse fibroblasts), pSI expression vector
T1 sequence (P28223 whole entry): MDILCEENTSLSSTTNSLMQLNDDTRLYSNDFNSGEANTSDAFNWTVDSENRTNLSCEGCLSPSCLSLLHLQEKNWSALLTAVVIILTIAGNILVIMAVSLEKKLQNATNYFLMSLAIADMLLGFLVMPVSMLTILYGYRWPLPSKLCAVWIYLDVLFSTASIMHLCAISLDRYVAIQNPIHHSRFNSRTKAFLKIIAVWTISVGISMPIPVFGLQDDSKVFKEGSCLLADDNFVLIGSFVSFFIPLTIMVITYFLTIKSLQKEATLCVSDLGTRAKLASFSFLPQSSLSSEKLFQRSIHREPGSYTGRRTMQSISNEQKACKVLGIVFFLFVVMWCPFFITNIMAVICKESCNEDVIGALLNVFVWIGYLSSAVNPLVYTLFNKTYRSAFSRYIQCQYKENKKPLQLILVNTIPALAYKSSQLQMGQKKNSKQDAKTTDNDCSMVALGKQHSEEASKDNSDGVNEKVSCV
The series is described as follows: Receptor Selection and Amplification (R-SAT) assay, 5-HT2A inverse agonism. It is filed as cell-based. The following applies: for Percent Efficacy: compared to ritanserin. How it is done:
Briefly, NIH3T3 cells were grown in 96 well tissue culture plates to 70-80% confluence. Cells were transfected for 12-16 hours with plasmid DNAs using superfect (Qiagen Inc.) as per manufacture's protocols. R-SAT's were generally performed with 50 ng/well of receptor and 20 ng/well of Beta-galactosidase plasmid DNA. […] Large-scale transfections, cells were transfected for 12-16 hours, then trypsinized and frozen in DMSO. Frozen cells were later thawed, plated at 10,000-40,000 cells per well of a 96 well plate that contained drug. With both methods, cells were then grown in a humidified atmosphere with 5% ambient CO2 for five days. Media was then removed from the plates and marker gene activity was measured by the addition of the beta-galactosidase substrate ONPG (in PBS with 5% NP-40). […] All data were analyzed using the computer program XLFit (IDBSm).

In series [1] the test system is DOI-induced head twitches in mice. The series is described as follows: Observation for head twitches in DOI-treated mice. The format is in vivo. The following applies: for MED (minimum effective dose in vivo): statistically significant reduction in head twitching score, DOI-treated mice, 0.1-30 mg/kg subcutaneous injection. From the text: (§1) Instruments) were used for rat experiments (details on startle apparatus and measures, see Male Non-Swiss Albino mice and male Sprague-Dawley rats (Harlan Sprague-Dawley) were housed (4 mice/cage; 2 rats/cage) in rooms with temperature and humidity controlled and water and food (Harlan Teklad) freely available. Mice were kept on a 12-hr light:dark cycle, whereas rats were kept on a 12-hr reverse light:dark cycle. For locomotor and observation experiments in mice, plastic 20×20×30 cm activity cages were equipped with photocell beams (AccuScan Instruments). Startle chambers (San Diego Instruments) were used for rat experiments (for details on startle apparatus and measures, see Mansbach et al., (1988) Psychopharmacology 94:507-14).
Mice were treated with 2.5 mg/kg DOI i.p. Five min later, mice were treated with AC-90179 s.c. and placed into activity cages. Ten min later, mice were observed using a repeated sampling technique. […] Each dose combination was tested in a separate group of animals (n=8) and the experimenter was blind to drug conditions. Head twitch scores were averaged followed by analysis of variance (ANOVA) and post-hoc Dunnett's t-test comparisons.
The effect of various compounds on head twitch behavior in mice treated with DOI was observed as described in Example 139. Animals received 0.1-30 mg/kg of the compound indicated via subcutaneous injection. MED indicates the minimum effective dose at which a statistically significant reduction in head twitching score (described above) was observed. MED=minimum effective dose in vivo.

In series [2] the test system is locomotor activity of mice (dizocilpine- or d-amphetamine-induced hyperactivity, spontaneous activity). The series is described as follows: Locomotor activity in mice. It is filed as in vivo. The following applies: for distance traveled (average): i.p., 15 min.
Source text: as §1
For hyperactivity experiments, mice were treated with 0.3 mg/kg dizocilpine or 3.0 mg/kg d-amphetamine i.p. 15 min before the session. Five minutes after the pretreatment, mice were treated with AC-90179 s.c. and placed into the activity cages. For spontaneous activity, AC-90179 was administered alone. Locomotor data were collected during a 15 min session without habituation in a lit room. Each dose combination was tested in a separate group of animals (n=8). Distance traveled (cm) was calculated and averaged followed by ANOVA and post-hoc Dunnett's t-test comparisons.

Series [3] deals with acoustic startle and prepulse inhibition in rats. Put plainly: Startle testing, prepulse inhibition (PPI) in rats. It is filed as in vivo. As to conditions: for effect on startle magnitude: 3-way repeated measures ANOVA; for restoration of PPI in DOI-treated rats: DOI 0.5 mg/kg s.c.; for restoration of PPI in DOI-treated rats / effect on PPI on its own: AC-90179 s.c., risperidone 1.0 mg/kg i.p.; for effect on PPI on its own: saline (vehicle)-treated rats.
Source text: as §1
Rats were tested and groups (n=10) matched for levels of startle reactivity and prepulse inhibition (PPI; see Mansbach et al., (1988) Psychopharmacology 94:507-14). Two days later, test sessions started and consisted of a 5-min acclimation period with a constant background noise (65 dB), followed by 60 presentations of acoustic stimuli to measure acoustic startle responses. The 60 trials consisted of: twenty two 40-ms presentations of a 120 dB broadband pulse, ten 20-ms presentations of each prepulse intensity (68, 71, 77 dB) 100 ms prior to a 40-msec presentation of a 120 dB broadband pulse, and 8 NOSTIM trials in which no stimuli were delivered in order to assess general motor activation in the rats. Thirty min before testing, rats were treated with sterile water (s.c.), risperidone (1.0 mg/kg, i.p.), or AC-90179 (s.c.). Five min later, rats were administered DOI (0.5 mg/kg, s.c.) or 0.9% saline (s.c.). One-week later, rats were administered the same pretreatment drug or vehicle and crossed over to receive the treatment opposite to that they received the previous week. Startle magnitudes and percent PPI for the three prepulse intensities were calculated as described elsewhere (Bakshi, et al., (1994) J. Pharmacol. Exp. Ther. 271:787-94) and ANOVAs with repeated measures performed.

Where [4] appears, read: mice, DOI 2.5 mg/kg i.p., 0.1-30 mg/kg, s.c., 10 min.

With `COc1ccc(CC(=O)N(Cc2ccc(Cl)cc2)C2CCN(C(C)C)CC2)cc1` [Compound 42ELH79, 2-(4-Methoxyphenyl)-N-(4-chlorbenzyl)-N-(1-isopropylpiperidin-4-yl) acetamide], at 5-HT2A receptor (Table 4 of Example 137), the pIC50 amounted to 8.5 and the “Percent Efficacy” value is given as 110%. The “MED (minimum effective dose in vivo)” value in series [1] is reported as “≦10 mg/kg”.

Turning to `CCN1CCC(N(Cc2ccc(Cl)cc2)C(=O)Cc2ccc(OC)cc2)CC1` [Compound 42ELH85, 2-(4-Methoxyphenyl)-N-(4-chlorbenzyl)-N-(1-ethylpiperidin-4-yl)acetamide], the “Percent Efficacy” value on 5-HT2A receptor (Table 4 of Example 137) came out at 118%. Also, the “MED (minimum effective dose in vivo)” value in series [1] was “≦10 mg/kg”.

For the compound `COc1ccc(CC(=O)N(Cc2ccc(Cl)cc2)C2CCN(C3CCCC3)CC2)cc1` [Compound 42ELH91, 2-(4-Methoxyphenyl)-N-(4-chlorbenzyl)-N-(1-cyclopentylpiperidin-4-yl)acetamide], the “Percent Efficacy” value at 5-HT2A receptor (Table 4 of Example 137) is recorded as 108%. Besides, the “MED (minimum effective dose in vivo)” value in series [1] is recorded as greater than 10 mg/kg.

`COc1ccc(CC(=O)N(Cc2ccc(C)cc2)C2CCN(C)CC2)cc1` [Compound 50ELH27, 2-(4-Methoxyphenyl)-N-(4-methylbenzyl)-N-(1-methylpiperidin-4-yl)acetamide]: in series [1] (setting [4]), the “effect on DOI-induced head-twitches” value is listed as “dose-related decrease” and the “minimum effective dose against DOI-induced head-twitches” value was found to be 1 mg/kg. Further, the “effect on head twitch behavior at higher doses” value in series [1] (mice, DOI 2.5 mg/kg i.p., higher doses, s.c.) is given as “completely eliminating head twitch behavior”. Also, the “MED (minimum effective dose in vivo)” value in series [1] was found to be 1 mg/kg. Moreover, the “effect on hyperactivity induced by dizocilpine” value in series [2] (0.3-10 mg/kg, s.c., 10 min, dizocilpine 0.3 mg/kg i.p.) is listed as “attenuated”. Moreover, the “dose that reduced spontaneous locomotor activity” value in series [2] (compound alone, s.c., only at the highest dose tested) turned out to be 30 mg/kg. Besides, the “minimum effective dose against dizocilpine” value in series [2] (hyperactivity induced by dizocilpine 0.3 mg/kg i.p., s.c.) came to 1 mg/kg. Besides, in series [3] (rats), the “effect on startle magnitude” value is recorded as “significant effect of pretreatment” and the “restoration of PPI in DOI-treated rats” value is listed as “effective in restoring this disruption especially at the higher doses; also recorded: significant effects”. Besides, the “effect on PPI on its own” value in series [3] is reported as “did not affect PPI on its own; also recorded: no effect”.

In turn, `Cc1ccc(CN(C(=O)Cc2ccc(N(C)C)cc2)C2CCN(C)CC2)cc1` [Compound 57MBT70-6D, N-((4-methylphenyl)methyl)-N-(1-methylpiperidin-4-yl)-2-(4-(N,N-dimethylamino)phenyl)acetamide hydrochloride] had an IC50 against 5-HT2A receptor (Table 4 of Example 137) of 10 nM. In other words, the double-digit nanomolar range.

As for `CCOc1ccc(CC(=O)N(Cc2ccc(F)cc2)C2CCN(C)CC2)cc1` [Compound 63ELH21, 2-(4-Ethoxyphenyl)-N-(4-fluorobenzyl)-N-(1-methylpiperidin-4-yl)acetamide], in series [1], the “MED (minimum effective dose in vivo)” value was “≦10 mg/kg”.

Regarding `COc1cc(CC(C)N)c(OC)cc1I` (stereo not shown) [DOI, reference compound], the “average head twitch score” value in series [1] (mice, 2.5 mg/kg, i.p., 15 min, score 0-6) was 2.6 (±0.3, S.E.M.). For the same compound, in series [3] (rats, 0.5 mg/kg, s.c.), the “effect on PPI” value was “significantly disrupted PPI”.

Consider `C[C@]12N[C@H](Cc3ccccc31)c1ccccc12` [Dizocilpine, dizocilpine, reference compound], for which the “distance traveled (average)” value in series [2] (0.3 mg/kg) was 2625 cm.

For the compound `C[C@H](N)Cc1ccccc1` [d-amphetamine, reference compound], the “distance traveled (average)” value in series [2] (3.0 mg/kg) amounted to 3367 cm.

In the case of `Cc1nc2n(c(=O)c1CCN1CCC(c3noc4cc(F)ccc34)CC1)CCCC2` [risperidone], in series [3] (rats), the “effect on startle magnitude” value is reported as “no effect on startle magnitude” and the “restoration of PPI in DOI-treated rats” value is “effective in restoring PPI in DOI-treated rats; also recorded: significant effects”. In series [3], the “effect on PPI on its own” value is reported as “no effect on PPI by itself”.

As to “N-(2-Phenylethyl)-N-(piperidin-4-yl)-4-methoxyphenylmethylacetamide [Compound 26HCH80-2]”, the “pIC50 (average)” value on 5-HT2A receptor (Table 1) worked out at 7.78. In addition, at 5-HT2A receptor (percent maximal repression compared to ritanserin, Table 1), the “Efficacy (average)” value turned out to be 89%.
